According to patent US9320809B2, “Nanoparticle comprising hydrophobic drug conjugated to cationic polymer and hydrophilic drug conjugated to anionic polymer” (University-Industry Foundation, Yonsei University, priority 2014, dated 2016):

System: Bax, Bcl-2, Bcl-xL mRNA in HuCCT1 and SCK cells
Experiment: Expression level of apoptosis-related genes (real-time PCR)
Assay type: cell-based
Settings: same amount of drugs; for change of apoptosis gene expression according to the level of expression of CD44: HuCCT1 versus SCK
Description: The level of expression of an apoptosis gene of each material was compared and analyzed under the same condition as Experimental Example 4.
Specifically, 1×10^6 HuCCT1 and SCK cells were treated with GEM, PTX, GEM+PTX, HA-GEM, PLL-PTX, HA-GEM, and MDNCs for 4 hours based on the same amount of GEM and PTX. Then, the cells were incubated in a new medium for 24 hours, and thereby the cells were obtained. Total amount of RNA with respect to all the obtained cells was obtained with an RNeasy plus mini kit (QIAGEN Gmbh), and then a concentration of total RNA was obtained using a biophotometer. Thereafter, 2 μg of complementary DNA (cDNA) with respect to the total RNA was synthesized through a high capacity RNA-to-cDNA kit (Applied Biosystems; Thermo Fisher Scientific Inc.). Quantitative analysis of the synthesized cDNA was performed using a QuantiMix SYBR Kit (PKT, Korea) in a real-time PCR system (LightCycler 480 System, HNS Bio). The quantitative analysis was performed through a reacting solution (20 μl) including cDNA (1 μl), SYBR Green mixture (10 μl), each of forward primer (1 μl) and reverse primer (1 μl), and DEPC water (7 μl). The used primers were as follows: […]
PCR was performed at 95° C. for 5 minutes, and then genes were amplified for 45 cycles (10 seconds at 95° C., 10 seconds at 60° C., and 10 seconds at 72° C.). A relative amount of each mRNA was analyzed using a Ct method (2-ΔΔCt) based on GAPDH of each cell, from data obtained as described above.

SMILES | change of apoptosis gene expression according to the level of expression of CD44 | effects on apoptosis gene expression compared with MDNCs
Nc1ccn([C@@H]2O[C@H](CO)[C@@H](O)C2(F)F)c(=O)n1 [GEM, gemcitabine] | few changes | lower than those of the MDNCs
CC(=O)O[C@H]1C(=O)[C@@]2(C)[C@H]([C@H](OC(=O)c3ccccc3)[C@]3(O)C[C@H](OC(=O)[C@H](O)[C@@H](NC(=O)c4ccccc4)c4ccccc4)C(C)=C1C3(C)C)[C@]1(OC(C)=O)CO[C@@H]1C[C@@H]2O [PTX, paclitaxel] | few changes | lower than those of the MDNCs
